What was measured:
BEAS-2B cells = test: In vitro oxygen exposure of BEAS-2B cells, YKL-40 expression by real-time RT-PCR; assay type: cell-based, human; settings: 95% O2, pretreatment 10 mM 1 hour before oxygen exposure, FIG. 1G
Experimental: mRNA levels were assessed by real-time reverse transcriptase-polymerase chain reaction, as previously described. […] The sequences for the primers that were used were obtained from Primer Bank online (pga.mgh.harvard.edu/primerbank) Human bronchial epithelial cell line BEAS-2B cells (ATCC, Rockville, Md.) were incubated in complete bronchial epithelial basal medium (Lonza, Walkersville, Md.). They were placed in an airtight modular incubator chamber (Billups-Rothenberg, Del Mar, Calif.), which had been flushed continuously with 95% O2/5% CO2 until the oxygen level inside the chamber reached approximately 95%. The incubator chamber was then placed in a tissue culture incubator at 37° C., the O2 inside the chamber was replaced every 24 hours, and the cells were harvested at the desired time points (24-72 h). The responses in these cells were compared with events in cells incubated in 5% CO2 and air. In select experiments, the cells were incubated with N-acetyl-L-cysteine (Sigma, St. Louis, Mo.), which was added at a dose of 10 mM 1 hour before oxygen exposure, or its vehicle control.

mice exposed to 100% O2 = test: Hyperoxic acute lung injury (100% O2 exposure) in mice; assay type: in vivo
Excerpt: BRP-39^−/− mice were generated and used as previously described (Lee et al., 2009, J Exp Med 206; 1149-1166). The mice were generated on a mixed 129/C57BL/6 background and subsequently bred for more than 10 generations onto a C57BL/6 background. Transgenic mice in which human YKL-40 was tightly and inducibly overexpressed (CC10-rtTA-tTS-YKL-40) in a lung-specific manner were generated with constructs and approaches that have been previously described. (Lee et al., 2009, J Exp Med 206:1149-1166). Mice that lacked BRP-39 and produced YKL-40 only in pulmonary epithelial cells (CC10-rtTA-tTS-YKL-40/BRP-39^−/−) were generated by breeding the CC10-rtTA-tTS-YKL-40 and BRP-39^−/− mice. Mice with caspase-3-null mutations were kindly provided by Dr. Flavell (Dept. of Immunobiology, Yale University School of Medicine). Animal protocols were approved by the Yale University Institutional Animal Care and Use Committee, the guidelines of which were followed for all experiments.
Mice (4-6 wk old) were placed in cages in an airtight Plexiglas chamber (55×40×50 cm), as described previously (Waxman et al., 1998, J Clin Invest 101:1970-1982; Ward et al., 2000, Am J Respir Cell Mol Biol 22:535-542; Wang et al., 2003, J Biol Chem 278:31226-31232). Throughout the experiment, they were given free access to food and water. Oxygen levels were constantly monitored by an oxygen sensor, which was connected to a relay switch incorporated into the oxygen supply circuit. The inside of the chamber was kept at atmospheric pressure, and mice were exposed to a 12-hour light-dark cycle. […]
Bronchoalveolar lavage (BAL; 50 μg) fluids and/or lung lysates were subjected to immunoblot analysis with antibodies against inhibitor of caspase-activated deoxyribonuclease (Chemicon International, Billerica, Mass.), caspase-3 (Cell Signaling Technology, Danvers, Mass.) or β-tubulin (Santa Cruz Biotechnology, Inc.), and the polyclonal rabbit antiserum against BRP-39, as noted above. These samples were fractionated by polyacrylamide gel electrophoresis, transferred to membranes, and evaluated as described previously (Kang et al., 2007, J Exp Med 204:1083-1093).
The levels of BRP-39 in BAL or lung lysates were evaluated by ELISA with an anti-BRP-39 rabbit polyclonal IgG for capture and biotinylated anti-BRP-39, followed by horseradish peroxidase-labeled streptavidin (GE Healthcare, Piscataway, N.J.) for detection. […] The levels of BAL fluid CXCL-1 and CCL-2 were measured by ELISA with commercial kits (R&D Systems, Minneapolis, Minn.), as directed by the manufacturer.
DNA fragmentation and cell death were evaluated with terminal deoxynucleotidyl transferase-mediated dUTP nick end labeling (TUNEL) assays, as previously described. […]

## CC(=O)N[C@@H](CS)C(=O)O [N-acetyl-L-cysteine]
BEAS-2B cells
  effect on hyperoxia inhibition of YKL-40 expression: abrogated the YKL-40-inhibiting effects of hyperoxia

## YKL-40: human homolog of BRP-39, chitinase-like protein; inducibly overexpressed as a transgene in mouse lung epithelium
Mice exposed to 100% O2; BRP-39−/− mice with epithelial-targeted transgenic YKL-40 (CC10-rtTA-tTS-YKL-40/BRP-39−/−), FIG. 5A
  survival in 100% oxygen: enhanced the survival
Mice exposed to 100% O2; BRP-39−/− mice with epithelial-targeted transgenic YKL-40, 100% O2, FIGS. 5B-5H
  augmented hyperoxia-induced responses (permeability, protein leak, tissue and BAL inflammation, KC/CXCL-1 and MCP-1/CCL2, TUNEL-positive cell death, caspase-3 activation): restored to levels comparable to those in WT animals
Mice exposed to 100% O2; CC10-rtTA-tTS-YKL-40 mice on WT genetic background, FIG. 5I
  survival in 100% O2: enhanced
Mice exposed to 100% O2; YKL-40 Tg animals on WT genetic background, 100% O2, FIGS. 5B-5H
  alveolar capillary permeability alterations, protein leak, tissue and BAL inflammation, KC/CXCL-1 and MCP-1/CCL2 production, TUNEL-positive cell death, caspase-3 activation: diminished

— patent publication US20130156750A1, “Compositions and Methods for Using Human YKL-40 to Treat Acute Lung Injury” (YALE UNIVERSITY, priority 2010, published 2013)
